# Residues, ends and D or L forms follow the SMILES beside them. *: point of attachment. AMC = Cc1cc(=O)oc2cc(N*)ccc12; Cbz = O=C(OCc1ccccc1)*
# Key:
# [1] = target: T1, cathepsin B (Bos taurus, UniProt P07688); assay: RP-HPLC of released AMC; format: biochemical; conditions: 100 µM substrate, 37 °C, cysteine, globin, H2O2; hemin/chloroquine incubation medium
# T1 construct: gene CTSB; native commercial enzyme from bovine spleen (Sigma)
# [2] = target: T2, papain (Carica papaya, UniProt P00784); assay: RP-HPLC of released AMC; format: biochemical; conditions: pH 4.8 acetate, 37 °C, 100 µM substrate, cysteine; medium also held H2O2, hemin/chloroquine
# T2 construct: native commercial enzyme (Sigma)
# T2 sequence (P00784 134-345): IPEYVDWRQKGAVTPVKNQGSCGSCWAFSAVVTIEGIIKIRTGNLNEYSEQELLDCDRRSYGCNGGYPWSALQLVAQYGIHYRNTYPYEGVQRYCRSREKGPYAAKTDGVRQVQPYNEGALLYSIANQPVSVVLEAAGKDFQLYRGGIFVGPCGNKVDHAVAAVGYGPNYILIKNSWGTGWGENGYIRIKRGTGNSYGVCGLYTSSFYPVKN
structure (smiles),measurement,setting,value
Cc1cc(=O)oc2cc(NC(=O)[C@H](CCCNC(=N)N)NC(=O)[C@H](Cc3ccccc3)NC(=O)OCc3ccccc3)ccc12 [Z-Phe-Arg-AMC] (Cbz-Phe-Arg-{AMC}),RP-HPLC of released AMC,[1],"papain, ficin and cathepsin-B using Z-Phe-Arg-AMC peptide"
same,RP-HPLC of released AMC,[2],"papain, ficin and cathepsin-B using Z-Phe-Arg-AMC peptide"

# From publication PMC6817881, “Antimalarial Quinoline Drugs Inhibit β-Hematin and Increase Free Hemin Catalyzing Peroxidative Reactions and Inhibition of Cysteine Proteases” (Scientific Reports, 2019)
